Data published in US8710043B2, “TRPM8 antagonists and their use in treatments” (Amgen Inc., priority 2011, dated 2014).

What follows are compounds tested against T1, human TRPM8 (Homo sapiens, UniProt Q7Z2W7) (assay: Luminescence readout assay for measuring intracellular calcium, icilin activation). Conditions: CHO cells expressing human TRPM8, aequorin luminescence, 1 μM icilin activation; read-out: hTRPM8 IC50.
T1 construct: expressed in transfected cells; host or cells: Chinese hamster ovary (CHO) cells, T-REx tetracycline-inducible system, co-transfected with aequorin
T1 sequence (Q7Z2W7 whole entry): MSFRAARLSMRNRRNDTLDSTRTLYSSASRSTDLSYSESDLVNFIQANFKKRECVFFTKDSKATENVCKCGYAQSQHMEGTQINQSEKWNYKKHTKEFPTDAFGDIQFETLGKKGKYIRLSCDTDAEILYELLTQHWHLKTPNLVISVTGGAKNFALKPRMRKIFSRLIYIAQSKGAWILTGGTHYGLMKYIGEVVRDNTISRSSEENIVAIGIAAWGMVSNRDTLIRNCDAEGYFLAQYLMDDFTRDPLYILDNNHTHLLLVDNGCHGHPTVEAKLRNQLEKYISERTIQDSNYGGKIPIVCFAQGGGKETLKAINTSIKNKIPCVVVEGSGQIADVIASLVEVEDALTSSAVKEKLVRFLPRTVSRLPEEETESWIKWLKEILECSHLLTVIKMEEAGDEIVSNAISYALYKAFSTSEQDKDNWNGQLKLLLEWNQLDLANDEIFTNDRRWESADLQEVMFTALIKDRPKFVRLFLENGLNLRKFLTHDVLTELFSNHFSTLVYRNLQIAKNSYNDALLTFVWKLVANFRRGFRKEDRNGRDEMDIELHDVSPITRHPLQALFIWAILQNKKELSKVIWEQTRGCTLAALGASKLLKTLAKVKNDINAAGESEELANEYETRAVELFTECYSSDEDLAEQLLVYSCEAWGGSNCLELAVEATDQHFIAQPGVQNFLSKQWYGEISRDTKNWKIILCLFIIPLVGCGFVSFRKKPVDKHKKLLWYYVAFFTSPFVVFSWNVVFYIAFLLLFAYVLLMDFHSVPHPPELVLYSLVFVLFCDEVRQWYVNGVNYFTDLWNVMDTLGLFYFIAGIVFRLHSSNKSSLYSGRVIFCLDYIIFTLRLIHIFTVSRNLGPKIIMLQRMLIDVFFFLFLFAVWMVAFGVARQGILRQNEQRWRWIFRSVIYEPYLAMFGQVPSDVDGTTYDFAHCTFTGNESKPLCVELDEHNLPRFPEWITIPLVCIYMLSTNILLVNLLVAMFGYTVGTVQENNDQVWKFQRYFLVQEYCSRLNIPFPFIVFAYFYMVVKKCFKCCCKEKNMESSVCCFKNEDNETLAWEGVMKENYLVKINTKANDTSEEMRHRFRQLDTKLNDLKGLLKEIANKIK
Type: cell-based
Procedure, shortened: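 The read-out was luminescence reporting intracellular calcium, recorded by a CCD-based luminometer. Compounds were preincubated for 2.5 min before agonist challenge with 1 μM icilin. Human TRPM8 was expressed in a stable T-REx CHO line, induced with 0.5 μg/mL tetracycline the day before.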

| SMILES | IC50 [nM] |
| --- | --- |
| Cc1cc(F)cc([C@H](NC(=O)c2ccc(=O)[nH]c2)c2ncccc2F)c1 [Example 325, (S)-N-((3-fluoro-5-methylphenyl)(3-fluoropyridin-2-yl)methyl)-6-oxo-1,6-dihydropyridine-3-carboxamide] | 644 |
| COc1ccc([C@H](NC(=O)c2ccc(=O)[nH]c2)c2ncccc2F)cc1F [Example 336, (S)-N-((3-fluoro-4-methoxyphenyl)(3-fluoropyridin-2-yl)methyl)-6-oxo-1,6-dihydropyridine-3-carboxamide] | 136 |
| O=C(N[C@@H](c1ccc(C(F)(F)F)cc1)c1ncccc1C(F)(F)F)c1c[nH]c2ncccc12 [Example 43, (S)-N-((4-(trifluoromethyl)phenyl)(3-(trifluoromethyl)pyridin-2-yl)methyl)-1H-pyrrolo[2,3-b]pyridine-3-carboxamide] | 24.5 |
| O=C(N[C@@H](c1ccc(C(F)(F)F)cc1)c1ncccc1F)c1cnc(Cl)c(Br)c1 [Example 198, (S)-5-bromo-6-chloro-N-((3-fluoropyridin-2-yl)(4-(trifluoromethyl)phenyl)methyl)nicotinamide] | 56 |
| O=C(N[C@@H](c1ccc(OC(F)(F)F)c(F)c1)c1ncccc1F)c1ccc2oc(=O)[nH]c2n1 [Example 425, (S)—N-((3-Fluoro-4-(trifluoromethoxy)phenyl)(3-fluoropyridin-2-yl)methyl)-2-oxo-2,3-dihydrooxazolo[4,5-b]pyridine-5-carboxamide] | 10.5 |
| CC(=O)Nc1ccc(C(=O)N[C@@H](c2ccc(C(F)(F)F)cc2)c2ncccc2C(F)(F)F)cn1 [Example 148, (S)-6-acetamido-N-((4-(trifluoromethyl)phenyl)(3-(trifluoromethyl)pyridin-2-yl)methyl)nicotinamide 2,2,2-trifluoroacetate] | 257 |
| CS(=O)(=O)Nc1ccc(C(=O)N[C@@H](c2ccc(C(F)(F)F)cc2)c2ncccc2F)cc1 [Example 213, (S)-N-((3-fluoropyridin-2-yl)(4-(trifluoromethyl)phenyl)methyl)-4-(methylsulfonamido)benzamide] | 43 |
| O=C(N[C@@H](c1ccc(C(F)(F)F)cc1)c1ncccc1C(F)(F)F)[C@@H]1CCCO1 [Example 234, (S)-N-((S)-(4-(trifluoromethyl)phenyl)(3-(trifluoromethyl)pyridin-2-yl)methyl)THF-2-carboxamide] | 169 |
| COc1ccc(C(=O)N[C@@H](c2ccc(C(F)(F)F)cc2)c2ncccc2F)cc1 [Example 172, (S)-N-((3-fluoropyridin-2-yl)(4-(trifluoromethyl)phenyl)methyl)-4-methoxybenzamide] | 18.1 |
| O=C(N[C@@H](c1ccc(F)cc1)c1ncccc1C(F)(F)F)c1ccccc1 [Example 126, (S)-N-((4-fluorophenyl)(3-(trifluoromethyl)pyridin-2-yl)methyl)benzamide] | 194 |
| O=C(N[C@@H](c1ccc(C(F)(F)F)cc1)c1ncccc1F)c1ccc2[nH]c(=O)oc2c1 [Example 78, (S)-N-((3-fluoropyridin-2-yl)(4-(trifluoromethyl)phenyl)methyl)-2-oxo-2,3-dihydrobenzo[d]oxazole-6-carboxamide] | 14.8 |
| O=C(NC(c1ccc(OC(F)(F)F)c(F)c1)c1cc(F)ccc1F)c1ccc(=O)[nH]c1 (stereo not shown) [Example 414, N-((2,5-difluorophenyl)(3-fluoro-4-(trifluoromethoxy)phenyl)methyl)-6-oxo-1,6-dihydropyridine-3-carboxamide] | 150 |
| Cc1cccnc1[C@@H](NC(=O)c1ccc(=O)[nH]c1)c1ccc(OC(F)(F)F)c(F)c1 [Example 347, (S)-N-((3-fluoro-4-(trifluoromethoxy)phenyl)(3-methylpyridin-2-yl)methyl)-6-oxo-1,6-dihydropyridine-3-carboxamide] | 10 |
| Cc1ncc(C(=O)N[C@@H](c2ccc(C(F)(F)F)cc2)c2ncccc2C(F)(F)F)c(N)n1 [Example 137, (S)-4-amino-2-methyl-N-((4-(trifluoromethyl)phenyl)(3-(trifluoromethyl)pyridin-2-yl)methyl)pyrimidine-5-carboxamide] | 94.9 |
| O=C(N[C@@H](c1ccc(C(F)(F)F)cc1)c1cnccc1C(F)(F)F)c1ccc2ncccc2c1 [Example 260, (S)-N-((4-(trifluoromethyl)phenyl)(4-(trifluoromethyl)pyridin-3-yl)methyl)quinoline-6-carboxamide bis (2,2,2-trifluoroacetate)] | 311 |
| CC(C)(C)c1cccnc1[C@@H](NC(=O)c1ccc2cccnc2c1)c1ccc(C(F)(F)F)cc1 [Example 286, (S)—N-((3-(tert-Butyl)pyridin-2-yl)(4-(trifluoromethyl)phenyl)-methyl)quinoline-7-carboxamide 2,2,2-trifluoroacetate] | 1110 |
| Cn1cc(C(=O)N[C@@H](c2ccc(F)cc2)c2ncccc2F)ccc1=O [Example 341, (S)-N-((4-fluorophenyl)(3-fluoropyridin-2-yl)methyl)-1-methyl-6-oxo-1,6-dihydropyridine-3-carboxamide] | 4280 |

| SMILES | IC50 [nM] |
| --- | --- |
| CCn1cc(C(=O)N[C@@H](c2ccc(Cl)c(Cl)c2)c2ncccc2F)ccc1=O [Example 365, (S)-N-((3,4-dichlorophenyl)(3-fluoropyridin-2-yl)methyl)-1-ethyl-6-oxo-1,6-dihydropyridine-3-carboxamide] | 40.1 |
| Cc1cccnc1[C@@H](NC(=O)c1ccc2c(c1)OCC(=O)N2)c1ccc(C(F)(F)F)cc1 [Example 85, (S)-N-((3-methylpyridin-2-yl)(4-(trifluoromethyl)phenyl)methyl)-3-oxo-3,4-dihydro-2H-benzo[b][1,4]oxazine-7-carboxamide] | 28.9 |
| O=C(N[C@@H](c1ccc(C(F)(F)F)cc1)c1ncccc1C(F)(F)F)c1ccc2c(c1)C(=O)CC2 [Example 245, (S)-3-oxo-N-((4-(trifluoromethyl)phenyl)(3-(trifluoromethyl)pyridin-2-yl)methyl)-2,3-dihydro-1H-indene-5-carboxamide] | 77.4 |
| O=C(N[C@@H](c1ccc(C(F)(F)F)cc1)c1ncccc1F)c1ccc2nccc(O)c2c1 [Example 114, (S)-N-((3-fluoropyridin-2-yl)(4-(trifluoromethyl)phenyl)methyl)-4-hydroxyquinoline-6-carboxamide 2,2,2-trifluoroacetate] | 50.6 |
| COC(=O)c1ccc(C(=O)N[C@@H](c2ccc(OC(F)(F)F)c(F)c2)c2ccccn2)nc1 [Example 406, (S)-methyl 6-(((3-fluoro-4-(trifluoromethoxy)phenyl)(pyridin-2-yl)methyl)carbamoyl)nicotinate] | 241 |
| O=C(N[C@@H](c1ccc(C(F)(F)F)cc1)c1ncccc1C(F)(F)F)c1cccc(OC(F)(F)F)c1 [Example 219, (S)-3-(trifluoromethoxy)-N-((4-(trifluoromethyl)phenyl)(3-(trifluoromethyl)pyridin-2-yl)methyl)benzamide] | 137 |
| O=C(Cc1ccccn1)N[C@@H](c1ccc(OC(F)(F)F)c(F)c1)c1ncccc1F [Example 288, (S)-N-((3-fluoro-4-(trifluoromethoxy)phenyl)(3-fluoropyridin-2-yl)methyl)-2-(pyridin-2-yl)acetamide] | 139 |
| O=C(O)c1ccc(C(=O)N[C@@H](c2ccc(C(F)(F)F)cc2)c2ncccc2F)nc1 [Example 280, (S)-6-(((3-Fluoropyridin-2-yl)(4-(trifluoromethyl)phenyl)-methyl)carbamoyl)nicotinic Acid] | 22.1 |
| O=C(N[C@@H](c1ccc(OC(F)(F)F)cc1)c1ncccc1F)c1ccc2nnnn2c1 [Example 309, (S)-N-((3-fluoropyridin-2-yl)(4-(trifluoromethoxy)phenyl)methyl)tetrazolo[1,5-a]pyridine-6-carboxamide] | 30.8 |
| O=C(N[C@@H](c1cnc2ccc(Cl)cc2c1)c1ncccc1C(F)(F)F)c1ccc2cccnc2c1 [Example 4, (S)-N-((6-chloroquinolin-3-yl)(3-(trifluoromethyl)pyridin-2-yl)methyl)quinoline-7-carboxamide] | 44 |
| O=C(Cc1ccncc1)N[C@@H](c1ccc(OC(F)(F)F)c(F)c1)c1ncccc1F [Example 290, (S)-N-((3-fluoro-4-(trifluoromethoxy)phenyl)(3-fluoropyridin-2-yl)methyl)-2-(pyridin-4-yl)acetamide] | 944 |
| O=C(N[C@@H](c1ccc(C(F)(F)F)cc1)c1ncccc1F)c1cc2n(n1)CCCO2 [Example 320, (S)-N-((3-fluoropyridin-2-yl)(4-(trifluoromethyl)phenyl)methyl)-6,7-dihydro-5H-pyrazolo[5,1-b][1,3]oxazine-2-carboxamide] | 132 |
| Cc1cc([C@H](NC(=O)c2ccc(=O)[nH]c2)c2ncccc2F)ccc1F [Example 338, (S)-N-((4-fluoro-3-methylphenyl)(3-fluoropyridin-2-yl)methyl)-6-oxo-1,6-dihydropyridine-3-carboxamide] | 264 |
| O=C(N[C@@H](c1ccc(C(F)(F)F)cc1)c1ncccc1C(F)(F)F)c1ccc(Br)cn1 [Example 205, (S)-5-bromo-N-((4-(trifluoromethyl)phenyl)(3-(trifluoromethyl)pyridin-2-yl)methyl)picolinamide] | 140 |
| O=C(N[C@@H](c1ccc(C(F)(F)F)cc1)c1ncccc1F)c1cccnc1 [Example 203, (S)-N-((3-fluoropyridin-2-yl)(4-(trifluoromethyl)phenyl)methyl)nicotinamide] | 135 |
| O=C(N[C@@H](c1ccc(C(F)(F)F)cc1)c1ncccc1C(F)(F)F)[C@H]1CC[C@@H](CO)CC1 [Example 241, (1s,4R)-4-(hydroxymethyl)-N-((S)-(4-(trifluoromethyl)phenyl)(3-(trifluoromethyl)pyridin-2-yl)methyl)cyclohexanecarboxamide] | 590 |
| Cc1ncoc1C(=O)N[C@@H](c1ccc(C(F)(F)F)cc1)c1ncccc1C(F)(F)F [Example 190, (S)-4-methyl-N-((4-(trifluoromethyl)phenyl)(3-(trifluoromethyl)pyridin-2-yl)methyl)oxazole-5-carboxamide] | 33.1 |
